The values below come from ChEMBL document CHEMBL6182858, “Dichloromethyl-Containing Derivatives from Streptomyces agglomeratus 5-2-6, a Soil Bacterium Isolated from the Qinghai-Tibet Plateau” (J Nat Prod, 2025).

This experiment has as its system Bacillus thuringiensis. The experiment is described as follows: Antibacterial activity against Bacillus thuringiensis assessed as inhibition of bacterial growth by agar plate method. The format is functional, organism-based.
Consider `O=c1cc(C(Cl)Cl)cc(CO)o1`, for which the Activity entry is “Not active; Detectable Activity Not Observed”.

With `CC/C=C(\C)[C@@H](O)[C@@H](O)C1=CC(=O)/C(=C/C(Cl)Cl)O1`, the Activity result is recorded as “Moderate_effect”.

Regarding `CC[C@@H](O)/C(C)=C/[C@@H](O)c1cc(C(Cl)Cl)cc(=O)o1`, the Activity entry is “Not active; Detectable Activity Not Observed”.

As to `CC/C=C(\C)[C@@H](O)[C@@H](O)C1=CC(=O)/C(=C\C(Cl)Cl)O1`, the Activity result is on record as “Moderate_effect”.

On to `CC[C@@H](O)[C@](C)(O)/C=C/C=C\[C@H](O)C(Cl)Cl`, for which the Activity result is “Not active; Detectable Activity Not Observed”.

Turning to `CC/C=C(\C)[C@@H](O)[C@@H](O)c1cc(C(Cl)Cl)cc(=O)o1`, the Activity result is “Not active; Detectable Activity Not Observed”.

As to `CC[C@H](O)/C(C)=C/[C@@H](O)c1cc(C(Cl)Cl)cc(=O)o1`, the Activity entry is “Not active; Detectable Activity Not Observed”.

`CC[C@@H](O)[C@@](C)(O)/C=C/C=C\[C@H](O)C(Cl)Cl`: the Activity entry is “Not active; Detectable Activity Not Observed”.
